# Earlier results as cited in patent US9951025B2, “Halogenopyrazoles as inhibitors of thrombin” (VERSEON CORPORATION, priority 2013, dated 2018).
# Non-standard residues stand in square brackets, D forms with d. No end group written: not given here. Oic = O=C(O)[C@@H]1C[C@@H]2CCCC[C@@H]2N1; Phe(4-Me) = Cc1ccc(C[C@H](N)C(=O)O)cc1
# Key:
# [1] = after 7 weeks of administration; cited from earlier work
# lung metastases = conditions: administered prior to cancer cell inoculation; cited from earlier work
# [2] = in vivo; cited from earlier work
# [3] = intrathecal, cited from earlier work
# [4] = test system: prostate cancer cell line PC-3; conditions: PC-3, concentration dependent manner; cited from earlier work
# tumor = conditions: cited from earlier work
# malignant breast tumors = conditions: cited from earlier work
# lung fibroblasts = conditions: mouse, in vivo; cited from earlier work
molecule,measurement,setting,value
CC(=O)Nc1c(-c2ccccc2)cccc1S(=O)(=O)N[C@@H](CCCc1ccc(N)cn1)C(=O)N1CCC(=C(F)F)CC1 [SSR182289],liver fibrogenesis,[1],decreased liver fibrogenesis significantly
hirudin,number of lung metastases,lung metastases,dramatically reduced
same,disease severity,[2],dramatic improvement
same,pain responses,[3]; for 7 days,curbed
same,development of neuropathic pain,[3],prevented
[dR][Oic]P[dA][Phe(4-Me)],thrombin-stimulated invasion,[4],block
same,overall tumor weight,tumor; compared to untreated mice,reduced
same,rate of tumor growth,tumor; mice dosed through drinking water,reduced
CCCCCCOC(=O)NC(=N)c1ccc(NCc2nc3cc(C(=O)N(CCC(=O)OCC)c4ccccn4)ccc3n2C)cc1 [dabigatran etexilate],invasion and metastasis of malignant breast tumors,"malignant breast tumors; mouse, in vivo",inhibited
same,reduction of tumor cells in the blood and liver micrometastases,"malignant breast tumors; mouse, in vivo",50-60%
same,weight loss,"malignant breast tumors; treated mice, 4 weeks",no weight loss
same,"profibrotic events in lung fibroblasts, including production of collagen and connective tissue growth factor",lung fibroblasts,reduced
